# In patent US11472774B2, “Anti-cancer compounds” (The University of Sydney, priority 2018, dated 2022):
# Molecular target: T1, porcine brain tubulin (Sus scrofa, UniProt P02550+P02554)
# T1 construct: purchased Cytoskeleton; host or cells: porcine brain tissue
# Assay: Fluorescence-based tubulin polymerization assay
# Type: biochemical
# Settings: compared to control (DMSO); 37° C.; FIG. 1 and FIG. 2
# Procedure: Fluorescence-based tubulin polymerization assay was conducted in a final volume of 55 μL using the Tubulin Polymerization Assay kit (Cytoskeleton, Colo., USA) as per manufacturer's instructions. Briefly, porcine brain tubulin was incubated with test compounds at 37° C. and fluorescence was measured using with Tecan M200 PRO+ microplate reader (Tecan, Switzerland) at 355 nm excitation and 460 nm emission.
# T1 sequence (P02550 whole entry): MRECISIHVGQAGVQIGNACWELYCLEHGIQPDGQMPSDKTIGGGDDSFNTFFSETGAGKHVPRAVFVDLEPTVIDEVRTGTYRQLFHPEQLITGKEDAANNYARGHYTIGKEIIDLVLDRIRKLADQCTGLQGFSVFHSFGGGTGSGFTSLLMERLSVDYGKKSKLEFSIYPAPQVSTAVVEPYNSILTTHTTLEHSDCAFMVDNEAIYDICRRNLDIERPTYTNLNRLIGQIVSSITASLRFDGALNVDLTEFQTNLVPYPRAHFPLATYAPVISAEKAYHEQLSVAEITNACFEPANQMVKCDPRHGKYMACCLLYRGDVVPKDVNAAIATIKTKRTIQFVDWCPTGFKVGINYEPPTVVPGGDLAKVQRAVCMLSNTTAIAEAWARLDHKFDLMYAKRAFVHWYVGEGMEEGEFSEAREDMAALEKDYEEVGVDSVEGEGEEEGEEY
# T1 sequence (P02554 whole entry): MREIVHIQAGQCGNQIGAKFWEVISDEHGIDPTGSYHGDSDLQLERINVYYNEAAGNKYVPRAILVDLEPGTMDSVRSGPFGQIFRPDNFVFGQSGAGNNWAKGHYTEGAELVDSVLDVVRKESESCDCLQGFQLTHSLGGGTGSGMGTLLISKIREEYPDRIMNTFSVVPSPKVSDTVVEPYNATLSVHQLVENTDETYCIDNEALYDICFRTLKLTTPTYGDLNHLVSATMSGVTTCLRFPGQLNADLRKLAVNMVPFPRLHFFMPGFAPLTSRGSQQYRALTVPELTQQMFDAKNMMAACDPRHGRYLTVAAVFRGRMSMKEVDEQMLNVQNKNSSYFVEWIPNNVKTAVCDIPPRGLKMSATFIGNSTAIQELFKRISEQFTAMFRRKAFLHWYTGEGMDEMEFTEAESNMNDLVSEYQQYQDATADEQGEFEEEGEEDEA
row,effect on tubulin polymerization,Compound
1,inhibited tubulin polymerization,"O=C(CCCc1ccc(-c2ccccc2F)cc1)Nc1cccnc1 [WJA69b, 4-(2′-fluoro-[1,1′-biphenyl]-4-yl)-N-(pyridin-3-yl)butanamide]"
2,inhibited tubulin polymerization,"O=C(NCCCc1ccc(-c2ccccc2F)cc1)c1cccnc1 [WJA88, N-(3-(2′-Fluoro-[1,1′-Biphenyl]-4-yl)Propyl)Nicotinamide]"
3,enhanced tubulin polymerization,CC(=O)O[C@H]1C(=O)[C@@]2(C)[C@H]([C@H](OC(=O)c3ccccc3)[C@]3(O)C[C@H](OC(=O)[C@H](O)[C@@H](NC(=O)c4ccccc4)c4ccccc4)C(C)=C1C3(C)C)[C@]1(OC(C)=O)CO[C@@H]1C[C@@H]2O [paclitaxel]
4,inhibited tubulin polymerization,CC[C@]1(O)C[C@@H]2CN(CCc3c([nH]c4ccccc34)[C@@](C(=O)OC)(c3cc4c(cc3OC)N(C)[C@H]3[C@@](O)(C(=O)OC)[C@H](OC(C)=O)[C@]5(CC)C=CCN6CC[C@]43[C@@H]65)C2)C1 [vinblastine]
